Assay results reported in ChEMBL document CHEMBL1149573, “Synthesis and reactivity of azobenzene-based bispropargyl sulfones: interesting comparison between cyclic and acyclic systems” (Bioorg Med Chem Lett, 2007).

Tested on: Escherichia coli
Assay: Induction of pBR322 DNA cleavage after 2.5 hrs relative to (E)-1,2-bis(2-(4-(phenylsulfonyl)but-2-ynyloxy)phenyl)diazene

Activity: 15%
SMILES: O=S(=O)(CC#CCOc1ccc2ccccc2c1)c1ccccc1
